In data set [1] the test system is T. b. brucei BSF trypomastigotes. Put plainly: Antitrypanosomal evaluation on T. b. brucei BSF trypomastigotes (Alamar Blue). The class given is cell-based. The settings on record: Trypanosoma brucei, trypomastigote blood stream form. On the procedure:
The effects of the tested compounds on the growth of T. b. brucei were assessed by Alamar Blue® assay described by Räz et al. T. b. brucei AnTat 1.9 (IMTA, Antwerpen, Belgium) was cultured in MEM with Earle’s salts, supplemented according to the protocol of Baltz et al. with the following modifications: 0.5 mM mercaptoethanol (Sigma Aldrich®, France), 1.5 mM L-cysteine (Sigma Aldrich®), 0.05 mM bathocuproïne sulfate (Sigma Aldrich®) and 20% heat-inactivated horse serum (Gibco®, France), at 37 °C and 5% CO2. They were incubated at an average density of 2000 parasites/100 µL in sterile 96-wells plates (Fisher®, France) with various concentrations of compounds dissolved in DMSO, in duplicate. Appropriate controls suramin, treated with sterile water, and fexinidazole, treated with DMSO on sterile water (reference drugs purchased from Sigma Aldrich, France and Fluorochem, UK) were added to each set of experiments. After a 69 h incubation period at 37 °C, 10 µL of the viability marker Alamar Blue® (Fisher, France) were then added to each well, and the plates were incubated for 5 h. The plates were read in a ENSPIRE microplate reader (PerkinElmer, Waltham, MA, USA) using an excitation wavelength of 530 nm and an emission wavelength of 590 nm. […] EC50 were calculated by nonlinear regression analysis processed on dose-response curves, using GraphPad Prism software (USA). EC50 values were calculated from three separate experiments.
(Resazurin is reduced to fluorescent resorufin, in cell work by metabolically active cells.)

A short description of data set [2]: Parallel artificial membrane permeability assay (PAMPA). The settings on record: for Papp at 4 h, 100 µM: PAMPA, pH 7.4, read-out: PAMPA GIT at pH 7.4 Pe. It is filed as in vitro ADME. In general terms: PAMPA measures passive passage across an artificial lipid membrane.
The target in data set [3] is T1, Albumin from human plasma (Homo sapiens, UniProt P02768).
T1 construct: from tissue; host or cells: plasma
T1 sequence (P02768 25-609): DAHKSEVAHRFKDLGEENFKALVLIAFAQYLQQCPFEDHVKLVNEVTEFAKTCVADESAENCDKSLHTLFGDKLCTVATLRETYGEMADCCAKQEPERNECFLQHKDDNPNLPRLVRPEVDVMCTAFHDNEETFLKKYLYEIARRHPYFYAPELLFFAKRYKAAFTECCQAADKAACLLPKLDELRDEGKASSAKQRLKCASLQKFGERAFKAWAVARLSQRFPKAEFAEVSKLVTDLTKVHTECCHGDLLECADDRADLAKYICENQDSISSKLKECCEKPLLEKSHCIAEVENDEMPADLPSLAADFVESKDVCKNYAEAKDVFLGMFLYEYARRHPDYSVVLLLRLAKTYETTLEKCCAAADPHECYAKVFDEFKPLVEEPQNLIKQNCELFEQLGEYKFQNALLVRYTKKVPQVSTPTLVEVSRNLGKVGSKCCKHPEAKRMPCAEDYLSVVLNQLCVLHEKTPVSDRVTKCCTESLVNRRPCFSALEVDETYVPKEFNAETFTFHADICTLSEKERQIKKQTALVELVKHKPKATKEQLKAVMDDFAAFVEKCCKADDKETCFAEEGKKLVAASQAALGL
As to the kind of experiment: Plasma protein (albumin) binding. The class given is in vitro ADME. The protocol: Plasma doped with the tested compound was incubated at 37 °C in triplicate in one of the compartments of the insert, the other compartment containing a phosphate buffer solution at pH 7.2. After stirring for 4 h at 300 rpm, a 25 μL aliquot of each compartment was taken and diluted; the dilution solution was adapted so as to obtain an identical matrix for all the compartments after dilution. Parallel, reprocessing of a plasma doped but not incubated was used to assess recovery. The LC-MS used for this study was a Waters® Acquity I-Class/Xevo TQD, equipped with a Waters® Acquity BEH C18 column, 50 × 2.1 mm, […]. The mobile phases were (A) ammonium acetate 10 mM and (B) acetonitrile with 0.1% formic acid. The injection volume was 1 µL and the flow rate 600 µL/min. Chromatographic analysis, total duration of 4 min, was performed along the following gradient: 0 < t < 0.2 min, 2% (B); 0.2 < t < 2 min, linear increase to 98% (B); 2 < t < 2.5 min, 98% (B); 2.5 < t < 2.6 min, linear decrease to 2% (B); 2.6 < t < 4 min, 2% (B). Carbamazepine, oxazepam, warfarin and diclofenac were used as reference drugs and propranolol as internal standard. The unbound fraction (fu) was calculated according to the following formula: fu=APlasma, 4h−APBS,4h/APlasma, 4h×100 . The percentage of recovery was calculated according to the following formula: % Recovery=(VPBS×APBS,4h)+(VPlasma×APlasma,4h)/(VPlasma×APlasma,0h) where A is the ratio of the area under peak of the studied molecule and the area under peak of the internal standard (propranolol 200 nM). V is the volume of solution present in the compartments (VPBS = 350 µL and Vplasma = 200 µL).

Data set [4] deals with T. b. brucei BSF trypomastigotes. Details: method as in PMID 30655943. The settings on record: previously evaluated hit compounds; cited from earlier work.
For data set [5], the system named is L. infantum axenic amastigotes. Further details: method as in PMID 24080103, PMID 30655943. The settings on record: previously identified hit compounds; cited from earlier work.
Another data set deals with HepG2 cell line. Further details: method as in PMID 24080103, PMID 30655943. The conditions noted are these: previously identified hit compounds; cited from earlier work.
The next data set has as its system THP1 cell line. Further details: method as in PMID 24080103, PMID 30655943. The conditions noted are these: previously identified hit compounds; cited from earlier work.

SMILES strings stand for the structures. Where “and” joins values, the source holds several entries; their conditions need not be identical. Equal values may be shown once. Read-outs that look alike come from different tables or passages of the source.

Usually EC50 stands for the concentration giving half of the maximal effect. As a reminder, the CC50 is the concentration at which the toxic effect on the cells reaches its halfway point.

For the compound `O=[N+]([O-])c1c(CS(=O)(=O)c2ccc(O)cc2)nc2c(Sc3ccc(Cl)cc3)cc(Cl)cn12` [Compound 3a, 4-{[(6-Chloro-8-[(4-Chlorophenyl)thio]-3-Nitroimidazo[1,2-a]pyridin-2-yl)methyl]sulfonyl}phenol], in data set [1], the EC50 is 0.78 ± 0.05 µM.
The same measure, in the same setting: the same measure for `O=[N+]([O-])c1c(CS(=O)(=O)c2ccc(F)cc2)nc2c(Sc3ccc(Cl)cc3)cc(Cl)cn12` [Compound 3c, 6-Chloro-8-[(4-Chlorophenyl)thio]-2-[(4-Fluorophenylsulfonyl)methyl]-3-Nitroimidazo[1,2-a]pyridine]: 0.57 ± 0.02 µM; for `O=[N+]([O-])c1c(CS(=O)(=O)c2ccc(C(F)(F)F)cc2)nc2c(Sc3ccc(Cl)cc3)cc(Cl)cn12` [Compound 3d, 6-Chloro-8-[(4-Chlorophenyl)thio]-3-Nitro-2-[(4-Trifluoromethylphenylsulfonyl)methyl]imidazo[1,2-a]pyridine]: 0.89 ± 0.07 µM.
For `O=[N+]([O-])c1c(CS(=O)(=O)CCC(F)(F)F)nc2c(Sc3ccc(Cl)cc3)cc(Cl)cn12` [Compound 3i, 6-Chloro-8-[(4-Chlorophenyl)thio]-3-Nitro-2-[(3,3,3-Trifluoropropylsulfonyl)methyl]imidazo[1,2-a]pyridine], in data set [2], the “PAMPA GIT at pH 7.4 Pe” value turned out to be 6.3 nm/s and the Papp at 4 h, 100 µM was 0.63 ± 0.08 ×10⁻⁶ cm/s. Also, in data set [3], the “Albumin Binding” value was 99.8% and 99.76%.
As for `O=[N+]([O-])c1c(CS(=O)(=O)CCC(F)(F)F)nc2c(-c3ccncc3)cc(Cl)cn12` [Compound 7, 6-Chloro-3-Nitro-8-(Pyridin-4-yl)-2-[(3,3,3-Trifluoropropylsulfonyl)methyl]imidazo[1,2-a]pyridine], the Papp at 4 h, 100 µM in data set [2] turned out to be 31.4 ± 8.72 ×10⁻⁶ cm/s. Further, in data set [3], the “Albumin Binding” value was 88.6% and 88.65%.
On to `CSc1ccc(OCc2ncc([N+](=O)[O-])n2C)cc1` [Fexinidazole, reference compound], for which the EC50 in data set [1] turned out to be 1.4 ± 0.5 µM.
Turning to `O=[N+]([O-])c1c(CS(=O)(=O)c2ccccc2)nc2c(Br)cc(Cl)cn12` [Hit A, 8-Bromo-6-chloro-3-nitro-2-(phenylsulfonylmethyl)imidazo[1,2-a]pyridine, reference compound], the results for the EC50 in data set [4] and in data set [5] were 1.4 ± 0.4 µM and 16.4 ± 1.3 µM, respectively. Further, the “PAMPA GIT at pH 7.4 Pe” value in data set [2] is 173.2 nm/s. Moreover, the Papp at 4 h, 100 µM in data set [2] worked out at 17.3 ± 3.88 ×10⁻⁶ cm/s. Moreover, the CC50 was more than 15.6 µM with HepG2 cell line and more than 100 µM in the data set on THP1 cell line. Also, the “Albumin Binding” value in data set [3] is 96.50%.
Regarding `O=[N+]([O-])c1c(CS(=O)(=O)c2ccccc2)nc2c(Sc3ccc(Cl)cc3)cc(Cl)cn12` [Hit B, reference compound], the values for the concentration giving a half-maximal response (EC50) in data set [4] and in data set [5] were 0.95 ± 0.05 µM and 1.7 ± 0.3 µM, respectively. Besides, the “PAMPA GIT at pH 7.4 Pe” value in data set [2] amounted to 4.0 nm/s. Also, the Papp at 4 h, 100 µM in data set [2] was determined as 0.4 ± 0.06 ×10⁻⁶ cm/s. For the same compound, the half-maximal cytotoxic concentration (CC50) is more than 100 µM in the data set with HepG2 cell line and more than 62.5 µM with THP1 cell line. For the same compound, the “Albumin Binding” value in data set [3] was 99.95%.

(Values after article PMC9415646, “Improving Aqueous Solubility and In Vitro Pharmacokinetic Properties of the 3-Nitroimidazo[1,2-a]pyridine Antileishmanial Pharmacophore” (Pharmaceuticals, 2022).)
